Converted amounts (≈) assume the structure as drawn.
Experiments:
[1] = tested on: Human fibroblast BJ; experiment: Cytotoxicity MTT assay, BJ human fibroblast cells; type: cell-based; conditions: 48 hrs, ± SD from three independent experiments, NA: did not show activity at 30 µM
Description: (§1) Cytotoxicity against BJ Human fibroblast cells, and anti-cancer activity against PC3, HeLa and MCF-7 cancer cell lines were evaluated by following the procedure as described in the literature (Supplementary Materials).
The Biological Activity Assays Protocols […]
(§2) of positive control – mean of O.D of negative control)*100). […]
(§3) Standard drug used in the MTT assay was doxorubicin. […]
B. Cytotoxicity assay Protocol (BJ Human fibroblast cells) […]
standard MTT (3-[4, 5-dimethylthiazole-2-yl]-2, 5-diphenyl-tetrazolium bromide) colorimetric assay (Price & J. McMillan1, 1990). For this purpose, BJ Human fibroblast cells were cultured in Dulbecco’s Modified Eagle Medium, supplemented with 10% of fetal bovine serum (FBS), 100 IU/ml of penicillin and 100 µg/ml of streptomycin and 2 mM L‐glutamine in 75 cm2 flasks, and kept in 5% CO2 incubator at 37 °C (Mannerström, Toimela, Sarkanen & Heinonen, 2017).
Exponentially growing cells were harvested, counted with haemocytometer and diluted with a particular medium. Cell culture with the concentration of 6x10^4cells/ml was prepared and introduced (100 µL/well) into 96-well plates. After overnight incubation, medium was removed and 200 µL of fresh medium was added with different concentrations of compounds (1 -30µM). After 48 hrs, 200 µL MTT (0.5 mg/ml) was added to each well and incubated further for 3 hrs.
Subsequently, 100µL of DMSO was added to each well. The extent of MTT reduction to formazan within cells was calculated by measuring the absorbance at 550 nm, using a micro plate reader (Spectra Max plus, Molecular Devices, CA, USA). The cytotoxicity was recorded as concentra tion causing 50% growth inhibition (IC50) for BJ cells. The percent inhibition was calculated by using the following […]
Following concentrations were used to calculate (in case) of IC50: […]

[2] = tested on: PC3 cells (Prostate Cancer); experiment: PC3 cells (Prostate Cancer) MTT assay; type: cell-based; conditions: for IC50: MTT assay, 48 hrs, ± SD from three independent experiments, NA: did not show anticancer activity at 30 µM
Description: as §1
The Biological Activity Assays Protocols
A. PC3 cells (Prostate Cancer) assay […]
For this purpose, PC3 cells (Prostate Cancer) were cultured in Dulbecco’s Modified Eagle Medium, supplemented with 5% of fetal bovine serum (FBS), 100 IU/ml of penicillin and 100 µg/ml of streptomycin in 75 cm2 flasks, and kept in 5% CO2 incubator at 37 °C. Exponentially growing cells were harvested, counted with haemocytometer and diluted with a particular medium. Cell culture with the concentration of 1x10^5 cells/ml was prepared and introduced (100 µL/well) into 96-well plates. After overnight incubation, medium was removed and 200 µL of fresh medium was added with different concentrations of compounds (1-30µM). After 48 hrs, 200 µL MTT (0.5 mg/ml) was added to each well and incubated further for 4 hrs. Subsequently, 100µL of DMSO was added to each well. The extent of MTT reduction to formazan within cells was calculated by measuring the absorbance at 570 nm, using a micro plate reader (Spectra Max plus, Molecular Devices, CA, USA). The cytotoxicity was recorded as concentration causing 50% growth inhibition (IC50) for PC3 cells. The percent inhibition was calculated by using the following formula: […]
(§4) of positive control – mean of O.D of negative control)*100).
(§5) The results (% inhibition) were processed by using Soft- Max Pro software (Molecular Device, USA).
Standard drug used in the MTT assay was doxorubicin.
(§6) 1. Mosmann T. Rapid colorimetric assay for cellular growth and survival: application to proliferation and cytotoxicity assays. J Immunol Meth 1983, 65, 55–63. […]

[3] = tested on: HeLa cells (Cervical Cancer); experiment: HeLa cells (Cervical Cancer) MTT assay; type: cell-based; conditions: Homo sapiens, HeLa, 48 h, ± SD from three independent experiments, NA: did not show anticancer activity at 30 µM
Description: (§7) Cytotoxicity against BJ Human fibroblast cells, and anti-cancer activity against PC3, HeLa and MCF-7 cancer cell lines were evaluated by following the procedure as described in the literature (Supplementary Materials). […]
as §4, §5
(§8) Following concentrations were used to calculate (in case) of IC50:
as §3
C. HeLa cells (Cervical Cancer) assay
Cytotoxic activity of compounds was evaluated in 96-well flat-bottomed micro plates by using the standard MTT (3-[4, 5-dimethylthiazole-2-yl]-2, 5-diphenyl-tetrazolium bromide) colorimetric assay40.
For this purpose, HeLa cells (Cervical Cancer) were cultured in Minimum Essential Medium Eagle, supplemented with 5% of fetal bovine serum (FBS) , 100 IU/ml of penicillin and 100 µg/ml of streptomycin in 75 cm2 flasks, and kept in 5% CO2 incubator at 37 °C. Exponentially growing cells were harvested, counted with haemocytometer and diluted with a particular medium. Cell culture with the concentration of 6x10^4 cells/ml was prepared and introduced (100 µL/well) into 96 -well plates. After overnight incubation, medium was removed and 200 µL of fresh medium was added with different concentrations of compounds (1-30µM). After 48 hrs, 200 µL MTT (0.5 mg/ml) was added to each well and incubated further for 4 hrs. Subsequently, 100µL of DMSO was added to each well. The extent of MTT reduction to formazan within cells was calculated by measuring the absorbance at 570 nm, using a micro plate reader (Spectra Max plus, Molecular Devices, CA, USA). The cytotoxicity was recorded as concentration causing 50% growth inhibition (IC 50) for HeLa. The percent inhibition was calculated by using the following formula: […]
The results (% inhibition) were processed by using Soft - Max Pro software (Molecular Device, USA).
as §6

[4] = tested on: MCF-7 breast cancer cell line; experiment: MCF-7 breast cancer cell line MTT assay; type: cell-based; conditions: for IC50: MTT assay, 48 hours, ± SD from three independent experiments, NA: did not show anticancer activity at 30 µM
Description: as §7, §2, §8, §3
D. MCF-7 breast cancer cell line assay.
MTT assay is a rapid and quantitative assay capable of measuring the surviving or proliferating cells.
It is based on the reduction of tetrazolium salt MTT (3-(4,5-dimethylthiazol-yl)-2,5-diphenyl tetrazolium bromide) by various dehydrogenase enzymes present in living cells. The tetrazolium ring present in MTT is cleaved in active mitochondria, which results in production of purple colored formazan crystals. These crystals are dissolved in DMSO and optical density of the color produced is taken by spectrophotometer (ELISA reader), with high efficiency and accuracy.
This assay was optimized and slightly modified according to our cell lines, i.e. MCF-7 breast cancer cell […]
1. MCF-7 cell line were cultured in Dulbecco’s modified Eagle medium (containing 10% fetal bovine serum) in 75 cc flasks, and kept in 5% CO 2 incubator at 37 °C.
2. Upon confluency, cells were harvested and plated in 96-well tissue culture treated flat bottom plates (seeding density 8,000 cells/well for MCF-7) in 100 µL medium.
3. Next day, compounds were added in triplicate at 50 µM concentration, and incubated for 48 hours. For natural extracts, the concentration was 50 µg/mL.
4. After 48 hrs incubation, the compounds were removed and 200 µL MTT at 0.5 mg/mL was added to each well and incubated at 37 °C for 3 hours.
5. Formazan crystals, formed by reduction of MTT were dissolved in 100 µL DMSO and absorbance was taken at 570 nm using micro-plate reader (Spectra Max plus, Molecular […]
6. The percent inhibition or decrease in viable cells was calculated by following formula:
% Inhibition = 100 - (mean of O.D. of test compound - mean of O.D. of negative control) / (mean of O.D. of positive control - mean of O.D. of negative control) x 100) […]
Twenty (20) mM stock concentration of compounds were diluted to working concentration of 50 µM, and then further serial dilutions were made in order to get less than 50% inhibition.
The IC50 was then calculated by using EZ-fit5 software.

[5] = tested on: P-388 cell lines; set-up: method as in PMID 8597898, doi:10.1016/j.tet.2007.05.127, doi:10.1021/jo00248a040; conditions: cited from earlier work
[6] = tested on: MDAMB (human mammary); set-up: method as in PMID 8597898, doi:10.1016/j.tet.2007.05.127, doi:10.1021/jo00248a040; conditions: cited from earlier work
[7] = tested on: HCT-8 (human colon); set-up: method as in PMID 8597898, doi:10.1016/j.tet.2007.05.127, doi:10.1021/jo00248a040; conditions: cited from earlier work
[8] = tested on: A-549 (human lung); set-up: method as in PMID 8597898, doi:10.1016/j.tet.2007.05.127, doi:10.1021/jo00248a040; conditions: cited from earlier work

Row | SMILES | IC50 ([2]; Homo sapiens, PC-3, 48 h) [µM] | IC50 [3] [µM] | IC50 ([4]; Homo sapiens, MCF7, 48 h) [µM] | melting point [°C] | IC50 [4] [µM] | IC50 [2] [µM] | IC50 [1] [µM] | anticancer activity against PC3 prostate cancer cell line (in words) ([2]; in comparison to doxorubicin) | anticancer activity against MCF-7 breast cancer cell line (in words) ([4]; in comparison to doxorubicin) | IC50, anti-tumor activity against P-388 cell lines [5] [µg/mL] | IC50 against MDAMB (human mammary) cancer cell line [6] [µg/mL] | IC50 against HCT-8 (human colon) cancer cell line [7] [µg/mL] | IC50 against A-549 (human lung) cancer cell line [8] [µg/mL]
1 | O=C(CC(c1cc2ccccc2o1)c1c[nH]c2ccccc12)c1ccc(F)cc1 (stereo not drawn) [Compound 3b, 3-(Benzofuran-2-yl)-1-(4-fluorophenyl)-3-(1H-indol-3-yl)propan-1-one] | 22.2 ± 0.5 | 8.2 ± 0.2 | 12.3 ± 0.04 | 157 to 158 | 12.37 ± 0.04 | – | > 30 | – | – | – | – | – | –
2 | O=C(CC(c1cc2ccccc2o1)c1c[nH]c2ccccc12)c1ccccc1 (stereo not drawn) [Compound 3a, 3-(Benzofuran-2-yl)-3-(1H-indol-3-yl)-1-phenylpropan-1-one] | 11.4 ± 0.2 | 22.5 ± 0.9 | – | 114 to 115 | – | – | – | – | inactive | – | – | – | –
3 | CN1CC(c2c[nH]c3c(Br)c(Br)cc(O)c23)NCC1c1c[nH]c2cc(Br)ccc12 (stereo not drawn) [dragmacidin] | – | – | – | – | – | – | – | – | – | 15 (≈ 25.7 µM) | 1 to 10 | 1 to 10 | 1 to 10

More lines, main results first:

Row | IC50 ([2]; Homo sapiens, PC-3, 48 h) [µM] | IC50 [3] [µM] | IC50 ([4]; Homo sapiens, MCF7, 48 h) [µM] | melting point [°C] | IC50 [4] [µM] | IC50 [2] [µM] | SMILES | IC50 [1] [µM] | anticancer activity against PC3 prostate cancer cell line (in words) ([2]; in comparison to doxorubicin) | anticancer activity against MCF-7 breast cancer cell line (in words) ([4]; in comparison to doxorubicin) | IC50, anti-tumor activity against P-388 cell lines [5] [µg/mL] | IC50 against MDAMB (human mammary) cancer cell line [6] [µg/mL] | IC50 against HCT-8 (human colon) cancer cell line [7] [µg/mL] | IC50 against A-549 (human lung) cancer cell line [8] [µg/mL]
4 | 21.9 ± 1.5 | 10.8 ± 0.1 | 25.9 ± 0.8 | 167 to 168 | – | – | O=C(CC(c1cc2ccccc2o1)c1c[nH]c2ccc(Br)cc12)c1ccc(F)cc1 (stereo not drawn) [Compound 3c, 3-(Benzofuran-2-yl)-3-(5-bromo-1H-indol-3-yl)-1-(4-fluorophenyl)propan-1-one] | > 30 | – | – | – | – | – | –
5 | 29.7 ± 0.5 | 18.4 ± 0.2 | 28.6 ± 0.33 | 60 to 61 | – | – | COc1ccccc1C(=O)CC(c1cc2ccccc2o1)c1c[nH]c2ccc(Br)cc12 (stereo not drawn) [Compound 3s, 3-(Benzofuran-2-yl)-3-(5-bromo-1H-indol-3-yl)-1-(2-methoxyphenyl)propan-1-one] | – | inactive | – | – | – | – | –
6 | 19.3 ± 0.1 | 15.2 ± 0.2 | 22.9 ± 0.43 | 154 to 155 | 22.9 ± 0.43 | – | COc1cccc(C(=O)CC(c2cc3ccccc3o2)c2c[nH]c3cc(F)ccc23)c1 (stereo not drawn) [Compound 3m, 3-(Benzofuran-2-yl)-3-(6-fluoro-1H-indol-3-yl)-1-(3-methoxyphenyl)propan-1-one] | > 50 | – | – | – | – | – | –
7 | 16.3 ± 1.6 | 11.9 ± 0.2 | 19.3 ± 0.78 | 126 to 127 | – | 27 ± 0.4 | O=C(CC(c1cc2ccccc2o1)c1c[nH]c2ccccc12)c1ccc(Cl)cc1 (stereo not drawn) [Compound 3f, 3-(Benzofuran-2-yl)-1-(4-chlorophenyl)-3-(1H-indol-3-yl)propan-1-one] | > 30 | – | – | – | – | – | –
